Assay results: US20050100983A1, “Cell-free methods for identifying compounds that affect toll-like receptor 9 (TLR9) signaling” (Coley Pharmaceutical GmbH, priority 2003, published 2005)

Assays:
[1] = target: T1, TLR9-CpG-DNA interaction (Mus musculus, UniProt Q9EQU3); experiment: SPR biosensor analysis of inhibitors on TLR9-CpG-DNA interaction; format: binding, murine
T1 construct: mTLR9ect (aa 1-816); made in house
T1 sequence (Q9EQU3 26-816): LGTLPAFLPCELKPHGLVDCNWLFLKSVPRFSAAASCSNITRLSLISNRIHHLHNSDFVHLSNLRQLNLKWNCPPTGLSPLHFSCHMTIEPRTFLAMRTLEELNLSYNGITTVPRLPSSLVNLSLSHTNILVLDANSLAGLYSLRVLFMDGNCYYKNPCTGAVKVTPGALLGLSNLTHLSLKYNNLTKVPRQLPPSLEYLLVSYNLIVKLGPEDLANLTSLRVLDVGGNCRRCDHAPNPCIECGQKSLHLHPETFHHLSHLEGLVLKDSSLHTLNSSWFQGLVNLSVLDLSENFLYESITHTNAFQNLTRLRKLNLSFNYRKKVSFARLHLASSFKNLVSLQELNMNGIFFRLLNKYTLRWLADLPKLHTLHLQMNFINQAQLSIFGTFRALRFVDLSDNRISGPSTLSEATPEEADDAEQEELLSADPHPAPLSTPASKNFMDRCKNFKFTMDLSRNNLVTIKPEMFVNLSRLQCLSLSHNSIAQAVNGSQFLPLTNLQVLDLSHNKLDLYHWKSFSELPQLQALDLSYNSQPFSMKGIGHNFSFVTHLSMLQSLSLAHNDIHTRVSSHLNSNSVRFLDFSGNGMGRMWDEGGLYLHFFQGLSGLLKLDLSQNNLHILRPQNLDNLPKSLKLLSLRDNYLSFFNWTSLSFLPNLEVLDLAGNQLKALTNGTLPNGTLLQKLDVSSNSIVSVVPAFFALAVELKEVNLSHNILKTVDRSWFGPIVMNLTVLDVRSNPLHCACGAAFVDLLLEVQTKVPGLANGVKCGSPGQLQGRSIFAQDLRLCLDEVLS
Description: Biotinylated CpG-DNA 1668 (SEQ ID NO:1) and non-CpG-DNA 1668GC (SEQ ID NO:3) were immobilized on streptavidin sensor chip flow cells 1 and 2, respectively.
FIG. 2B is a graph depicting SPR biosensor analysis of quinoquine (QC) on TLR9-PAMP interaction. Biotinylated CpG-DNA 1668 (SEQ ID NO:1) and non-CpG-DNA 1668GC (SEQ ID NO:3) were immobilized on streptavidin sensor chip flow cells 1 and 2, respectively. 200 nM TLR9 and indicated concentrations of quinoquine were injected and sensorgrams recorded.
(§1) SPR biosensor analysis. Real-time binding of TLR9 or TLR2 was measured by surface plasmon resonance biosensor technology using the BiaCore X system (Uppsala, Sweden). For analysis of TLR9 and TLR2 interaction, biotinylated CpG-DNA and non-CpG-DNA, or biotinylated Pam3CysK4 and PHCK4, respectively, were loaded in running buffer (50 mM MES, 150 mM NaCl, 1 mM MgCl2 at pH 6.5) on SA chips precoated with streptavidin (Biacore AB, Uppsala, Sweden). Non-CpG-DNA or PHCK4 (Wiesmuller K H et al. (1989) Vaccine 7:29-33) served as reference for CpG-DNA and Pam3CysK4 interaction (structure or sequence in Table 1). […] TLR proteins were introduced at 200 nM or as indicated in 40 μl running buffer at a flow rate of 10 μl/min. Binding was measured at 25° C. for 750 s (delay time 300 s). […] Sensorgrams were recorded and kinetic data were calculated by the BiaCore Evaluation program (Biacore, version 3.0.1). Regeneration of the chip was performed by injection of 10 μl 50 mM NaOH, 1 M NaCl and extensive re-equilibration.

[2] = system: murine TLR9; experiment: NF-κB luciferase assay, HEK 293 cells transfected with murine TLR9; format: cell-based; details: TLR9-transfected HEK 293 cells, 1 μM CpG-DNA, inhibitor added 15 min prior to stimulation
Description: Activation is expressed as fold induction compared to no stimulation. NF-κB luciferase assay. For monitoring transient NF-κB activation, 3×10^6 HEK 293 cells were electroporated at 200 volt and 950 μF with 20 ng of a NF-κB luciferase reporter plasmid (kindly provided by Patrick Baeuerle, Munich, Germany) and 1 μg mTLR2 (kindly provided by Tularik, Inc., South San Francisco, USA), mTLR9, or mTLR9-mut expression plasmid. Cells were seeded at 10^5 cells per well and after overnight culture stimulated with 1 μM phosphorothioated CpG-DNA 1668 (SEQ ID NO:1), 1 μM non-CpG-DNA 1668GC (SEQ ID NO:3), 1 μg/ml Pam[…][…] or 1 μg/ml PHCK4 for further 8 hours. […] Stimulated cells were lysed using reporter lysis buffer (Promega, Mannheim, Germany) and lysates were assayed for luciferase activity using a Berthold luminometer (Wildbad, Germany) according to the manufacturer's instruction.

[3] = target: T2, mTLR2ect (TLR2-Pam3Cys interaction) (Mus musculus, UniProt Q9QUN7); experiment: SPR biosensor analysis of TLR2-Pam3Cys binding; design: species or system murine; details: 200 nM TLR2, immobilized Pam3Cys, PHC as reference
T2 construct: mTLR2ect (aa 1-587); made in house
T2 sequence (Q9QUN7 25-587): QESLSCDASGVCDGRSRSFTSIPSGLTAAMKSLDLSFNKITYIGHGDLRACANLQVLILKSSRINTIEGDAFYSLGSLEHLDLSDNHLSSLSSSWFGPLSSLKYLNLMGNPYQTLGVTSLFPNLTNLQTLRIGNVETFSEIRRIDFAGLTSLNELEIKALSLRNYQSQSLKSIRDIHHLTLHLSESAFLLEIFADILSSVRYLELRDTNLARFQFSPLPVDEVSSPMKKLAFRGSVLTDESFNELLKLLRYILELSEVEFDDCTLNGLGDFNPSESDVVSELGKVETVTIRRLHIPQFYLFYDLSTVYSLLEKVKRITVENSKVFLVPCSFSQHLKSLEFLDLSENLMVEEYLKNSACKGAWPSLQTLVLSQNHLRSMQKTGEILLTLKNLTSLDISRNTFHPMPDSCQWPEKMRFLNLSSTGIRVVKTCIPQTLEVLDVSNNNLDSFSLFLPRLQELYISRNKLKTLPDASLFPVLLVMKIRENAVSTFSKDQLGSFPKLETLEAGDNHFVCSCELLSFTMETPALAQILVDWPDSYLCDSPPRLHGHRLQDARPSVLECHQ

[4] = system: murine TLR2; experiment: NF-κB luciferase assay, HEK 293 cells transfected with murine TLR2; format: cell-based; details: TLR2-transfected HEK 293 cells, 1 μg/ml Pam3Cys
[5] = target: T3, mTLR9ect (Mus musculus, UniProt Q9EQU3); experiment: UV-crosslinking of mTLR9ect with 32P-labeled DNA and SDS-PAGE; format: binding, murine; details: SDS-PAGE, complex at 150 kDa
T3 construct: mTLR9ect (aa 1-816); made in house
T3 sequence (Q9EQU3 26-816): T1 sequence (Q9EQU3 26-816)
Source text: FIG. 1B is an image of an SDS-PAGE gel depicting purified proteins from FIG. 1A UV-crosslinked with ^32P-labeled CpG- or non-CpG-DNA, separated by SDS-PAGE, and autoradiographed. TLR9 and free DNA are highlighted.
Bauer S et al. (2001) Proc. Natl. Acad. Sci. U.S.A. 98:9237-9242. To assess binding of TLR9 to CpG-DNA, a recombinant fusion protein consisting of the extracellular domain of murine TLR9 and human IgG 1-Fc (mTLR9ect) was constructed. The extracellular domain of murine TLR2 also fused to IgG1-Fc (mTLR2ect) served as control. Proteins were expressed in HEK 293 cells and purified via protein A affinity chromatography (FIG. 1A). Under denaturing and non-reducing conditions mTLR9ect and mTLR2ect are approximately 10% in a monomeric and 90% in a dimeric form. Dimerization of the proteins is probably mediated by the IgG 1-Fc fusion partner which forms disulfide bonds (FIG. 1A). Initially, binding of mTLR9ect to radiolabeled DNA was determined by UV-crosslinking and subsequent SDS-PAGE.

[6] = target: T4, mTLR9ect (extracellular domain of murine TLR9 fused to human IgG1-Fc) (Mus musculus, UniProt Q9EQU3); experiment: SPR biosensor analysis of mTLR9ect binding to immobilized CpG-DNA
T4 construct: mTLR9ect (aa 1-816); made in house
T4 sequence (Q9EQU3 26-816): T1 sequence (Q9EQU3 26-816)
Source text: (§2) Protein. Recombinant fusion proteins consisting of the extracellular domain of Toll-like receptors mTLR9ect (aa 1-816), mTLR9ect-mut (see below) (aa 1-816), hTLR9ect (aa 1-815) and mTLR2ect (aa 1-587) fused to human IgG1-Fc were constructed by amplifying the corresponding extracellular domain and ligating the fragment in frame into a pcDNA3.1(−) (Invitrogen, Netherlands) vector containing the coding sequence for human IgG1-Fc. Fusion proteins were stably expressed in HEK 293 cells and purified from cell lysates by protein A affinity chromatography.
as §1
For detailed analysis of TLR9-CpG-DNA interaction, surface plasmon resonance (SPR) biosensor based technology was used with CpG- and non-CpG-DNA immobilized onto separate flow cells of a streptavidin-coated chip. Under these settings non-CpG-DNA served as reference for specific binding (see Methods). Binding of mTLR9ect to DNA was CpG-sequence-specific and increased in a dose-dependent manner. […] Using the 1:1 binding model of the BioEvaluation software as fitting algorithm and on the basis of four different mTLR9ect concentrations ranging from 50 to 300 nM, a dissociation constant (Kd) of 200 nM was obtained with low chi-squared residuals (4,76). […] Weber AN et al. (2003) Nat. Immunol. 4:794-800. Furthermore the concentration of CpG-DNA 1668 (SEQ ID NO:1) for half-maximal activation of murine TLR9 has been recently calculated as 70 nM which correlates well with the KD obtained here. Bauer S et al. (2001) Proc. Natl. Acad. Sci. U.S.A. 98:9237-9242. […] This difference in affinity correlates with the observed species-specific variance in CpG-motif recognition, as well as activation potential. Bauer S et al. (2001) Proc. Natl. Acad. Sci. U.S.A. 98:9237-9242.

[7] = target: T5, human TLR9ect (Homo sapiens, UniProt Q9NR96); experiment: SPR biosensor analysis of human TLR9ect binding to CpG-DNA 2006; details: non-CpG-DNA 2006GC as control
T5 construct: hTLR9ect (aa 1-815); made in house
T5 sequence (Q9NR96 26-815): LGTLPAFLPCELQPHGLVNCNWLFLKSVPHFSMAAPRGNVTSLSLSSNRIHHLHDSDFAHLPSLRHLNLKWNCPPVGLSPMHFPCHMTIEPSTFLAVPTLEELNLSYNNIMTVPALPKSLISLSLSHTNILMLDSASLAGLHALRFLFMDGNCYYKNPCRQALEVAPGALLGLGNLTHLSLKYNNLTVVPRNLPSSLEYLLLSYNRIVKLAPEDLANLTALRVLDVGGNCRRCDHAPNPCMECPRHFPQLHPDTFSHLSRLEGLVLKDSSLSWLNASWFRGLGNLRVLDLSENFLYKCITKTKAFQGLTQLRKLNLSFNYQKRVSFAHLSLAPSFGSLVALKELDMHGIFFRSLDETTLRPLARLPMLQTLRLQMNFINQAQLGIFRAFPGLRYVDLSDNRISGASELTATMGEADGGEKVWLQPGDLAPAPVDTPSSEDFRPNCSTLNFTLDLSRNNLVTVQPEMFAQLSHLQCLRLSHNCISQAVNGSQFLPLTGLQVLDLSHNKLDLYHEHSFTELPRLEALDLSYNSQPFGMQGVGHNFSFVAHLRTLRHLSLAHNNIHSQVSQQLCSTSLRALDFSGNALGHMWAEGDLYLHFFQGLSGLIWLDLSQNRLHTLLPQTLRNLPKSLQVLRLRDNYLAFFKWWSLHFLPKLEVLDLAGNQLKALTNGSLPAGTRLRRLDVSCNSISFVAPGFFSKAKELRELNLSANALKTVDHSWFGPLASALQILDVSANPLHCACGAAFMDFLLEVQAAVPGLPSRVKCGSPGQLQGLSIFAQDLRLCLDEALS
Source text: as §2
SPR biosensor analysis. Real-time binding of TLR9 or TLR2 was measured by surface plasmon resonance biosensor technology using the BiaCore X system (Uppsala, Sweden). For analysis of TLR9 and TLR2 interaction, biotinylated CpG-DNA and non-CpG-DNA, or biotinylated Pam3CysK4 and PHCK4, respectively, were loaded in running buffer (50 mM MES, 150 mM NaCl, 1 mM MgCl2 at pH 6.5) on SA chips precoated with streptavidin (Biacore AB, Uppsala, Sweden). Non-CpG-DNA or PHCK4 (Wiesmuller K H et al. (1989) Vaccine 7:29-33) served as reference for CpG-DNA and Pam3CysK4 interaction (structure or sequence in Table 1). […] Binding was measured at 25° C. for 750 s (delay time 300 s). […] Sensorgrams were recorded and kinetic data were calculated by the BiaCore Evaluation program (Biacore, version 3.0.1). […]

Which “potency in blocking TLR9-CpG-DNA interaction and cellular activation, compared with chloroquine” value ([1]; SPR and TLR9-transfected HEK 293 cells) does the source give for CCN(CC)CCCC(C)Nc1c2ccc(Cl)cc2nc2ccc(OC)cc12 (stereo not drawn) [quinacrine] here?
Its value is “more potent”.

What about the “inhibition of binding of TLR9 to CpG-DNA” value ([1]; SPR, 200 nM TLR9, immobilized CpG-DNA 1668) of the same compound?
The value was “dose-dependently inhibit”.

And the “inhibition of TLR9-driven NF-κB activation” value [2]?
Its value is “dose-dependently inhibit”.

What about the “inhibition of TLR2-Pam3Cys binding” value [3] of the same compound?
Its value is “inhibited neither”.

And the “inhibition of Pam3Cys-driven cellular activation” value [4]?
The value was “inhibited neither”.

For “5′-TCCATGAGCTTCCTGATGCT-3′ (chemistry not given here) [non-CpG-DNA 1668GC, non-CpG control oligodeoxynucleotide]”, which “binding of mTLR9ect to radiolabeled DNA” value [5] is on record?
Its value is “bound only weakly”.

What about the “release of bound mTLR9ect by free injected DNA” value ([6]; competition, free DNA added in dissociation phase) of the same compound?
The value was “did not lead to the release”.

And the “effect of pre-incubation of mTLR9ect with DNA on binding to chip-immobilized CpG-DNA” value ([6]; pre-incubation prior to SPR analysis)?
Its value is “no inhibitory effect”.

For “5′-TCGTCGTTTTGTCGTTTTGTCGTT-3′ [CpG-DNA 2006]”, which “interaction with human TLR9ect” value [7] is on record?
The value was “specifically interacted”.
